Our source for the IC50 and Ki values is ChEMBL document CHEMBL1909046, “DrugMatrix in vitro pharmacology data”.

One test addresses Acetylcholinesterase (Homo sapiens, UniProt P22303). Description: DRUGMATRIX: Acetylcholinesterase enzyme inhibition (substrate: acetylthiocholine). Type of test: cell-based, HEK293. Conditions: hek293; Not Active = under 50% inhibition at 10 µM.
For test [1], the target named is Mitogen-activated protein kinase 3 (Homo sapiens, UniProt P27361). Kind of test: DRUGMATRIX: Protein Serine/Threonine Kinase, ERK1 enzyme inhibition (substrate: Myelin Basic Protein). Also noted: species or system Escherichia coli. The settings on record: Not Active = under 50% inhibition at 10 µM.
Test [2] has as its target T1, Cysteinyl leukotriene receptor 1 (Homo sapiens, UniProt Q9Y271). Further: in other assays of this panel Not Active means under 50% inhibition at 10 µM.
T1 sequence (Q9Y271 whole entry): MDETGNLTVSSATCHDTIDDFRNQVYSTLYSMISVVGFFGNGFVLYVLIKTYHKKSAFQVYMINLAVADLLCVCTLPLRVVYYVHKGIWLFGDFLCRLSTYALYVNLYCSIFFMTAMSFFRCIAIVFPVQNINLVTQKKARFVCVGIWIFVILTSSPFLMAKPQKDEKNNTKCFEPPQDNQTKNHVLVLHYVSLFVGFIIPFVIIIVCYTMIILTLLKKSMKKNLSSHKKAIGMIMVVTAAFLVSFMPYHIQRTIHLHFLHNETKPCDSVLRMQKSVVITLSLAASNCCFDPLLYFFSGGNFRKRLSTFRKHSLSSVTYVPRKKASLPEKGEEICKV
Type of test: cell membranes, CHO-K1, Membrane. The settings on record: cho-k1.

Test [3] deals with T2, Alpha-1A adrenergic receptor (Rattus norvegicus, UniProt P43140).
T2 sequence (P43140 whole entry): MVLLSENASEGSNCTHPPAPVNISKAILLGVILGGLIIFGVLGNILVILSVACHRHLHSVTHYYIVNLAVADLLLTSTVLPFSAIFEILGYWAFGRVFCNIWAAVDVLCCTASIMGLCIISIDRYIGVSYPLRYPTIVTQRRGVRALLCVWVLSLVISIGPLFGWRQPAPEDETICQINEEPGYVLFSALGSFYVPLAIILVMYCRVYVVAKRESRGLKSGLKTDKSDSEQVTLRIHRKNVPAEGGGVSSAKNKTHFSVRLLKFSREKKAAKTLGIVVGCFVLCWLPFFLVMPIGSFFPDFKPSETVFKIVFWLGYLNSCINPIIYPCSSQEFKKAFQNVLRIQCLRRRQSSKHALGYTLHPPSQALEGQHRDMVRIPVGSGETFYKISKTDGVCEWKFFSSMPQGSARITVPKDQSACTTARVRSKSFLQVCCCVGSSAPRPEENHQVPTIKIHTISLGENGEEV
Kind of test: DRUGMATRIX: Alpha-1A adrenergic receptor radioligand binding (ligand: prazosin). The settings on record: Not Active = under 50% inhibition at 10 µM; for pIC50: read-out: IC50; for pKi: read-out: Ki. Type of test: cell membranes, Wistar, Submaxillary gland, Membrane.

In the next test the target is Insulin receptor (Rattus norvegicus, UniProt P15127). Type of test: cell membranes, Wistar, Liver, Membrane. Further: in other assays of this panel Not Active means under 50% inhibition at 10 µM.
Another test deals with Vasopressin V1a receptor (Homo sapiens, UniProt P37288). Type of test: cell membranes, Membrane. Conditions: hek293.
The target in test [4] is T3, 5-hydroxytryptamine receptor 1A (Rattus norvegicus, UniProt P19327). Further: in other assays of this panel Not Active means under 50% inhibition at 10 µM.
T3 sequence (P19327 whole entry): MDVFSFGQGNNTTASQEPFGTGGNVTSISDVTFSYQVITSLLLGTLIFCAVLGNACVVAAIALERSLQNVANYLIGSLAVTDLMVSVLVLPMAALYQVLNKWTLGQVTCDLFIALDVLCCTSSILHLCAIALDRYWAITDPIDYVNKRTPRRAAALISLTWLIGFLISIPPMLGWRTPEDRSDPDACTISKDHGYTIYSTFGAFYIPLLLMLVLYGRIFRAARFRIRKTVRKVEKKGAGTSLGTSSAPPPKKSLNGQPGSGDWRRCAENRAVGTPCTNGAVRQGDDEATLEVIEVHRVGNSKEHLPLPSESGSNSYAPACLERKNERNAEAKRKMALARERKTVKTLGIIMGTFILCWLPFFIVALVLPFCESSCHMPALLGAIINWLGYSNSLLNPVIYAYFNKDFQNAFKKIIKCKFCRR
Type of test: cell membranes, CHO-K1, Membrane. The settings on record: for IC50: cho-k1.

The target of a further test is T4, Adenosine receptor A3 (Homo sapiens, UniProt P0DMS8).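 Further: radioligand binding assay with AB-MECA serving as the labeled ligand; in other assays of this panel Not Active means under 50% inhibition at 10 µM.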
T4 sequence (P0DMS8 whole entry): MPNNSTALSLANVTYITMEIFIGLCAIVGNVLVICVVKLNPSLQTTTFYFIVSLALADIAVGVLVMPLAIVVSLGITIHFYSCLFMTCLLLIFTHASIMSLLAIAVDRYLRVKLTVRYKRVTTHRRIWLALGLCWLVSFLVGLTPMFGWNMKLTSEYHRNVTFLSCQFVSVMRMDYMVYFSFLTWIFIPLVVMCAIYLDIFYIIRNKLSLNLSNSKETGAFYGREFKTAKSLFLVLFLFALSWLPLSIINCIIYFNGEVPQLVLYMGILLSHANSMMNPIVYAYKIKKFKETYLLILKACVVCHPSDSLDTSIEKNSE
Type of test: cell membranes, CHO-K1, Membrane. Conditions: for IC50: cho-k1.

Test [5] deals with T5, Neuropeptide Y receptor type 1 (Homo sapiens, UniProt P25929).
T5 sequence (P25929 whole entry): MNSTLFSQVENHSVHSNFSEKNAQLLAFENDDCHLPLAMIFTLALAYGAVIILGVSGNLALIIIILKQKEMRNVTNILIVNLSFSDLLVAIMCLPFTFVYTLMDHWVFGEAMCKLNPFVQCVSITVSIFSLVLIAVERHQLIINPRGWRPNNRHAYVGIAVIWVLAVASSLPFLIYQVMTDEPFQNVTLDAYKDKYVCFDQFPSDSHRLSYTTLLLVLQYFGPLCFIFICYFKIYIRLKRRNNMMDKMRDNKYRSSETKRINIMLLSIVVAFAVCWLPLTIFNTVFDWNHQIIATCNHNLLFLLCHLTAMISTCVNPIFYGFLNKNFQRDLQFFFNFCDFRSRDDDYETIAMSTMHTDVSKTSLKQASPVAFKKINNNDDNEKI
Type of test: cell membranes, Membrane. The settings on record: sk-n-mc.

pIC50, pKi: −log10 of the molar value.

Chain of Mitogen-activated protein kinase 3 (P27361 whole entry): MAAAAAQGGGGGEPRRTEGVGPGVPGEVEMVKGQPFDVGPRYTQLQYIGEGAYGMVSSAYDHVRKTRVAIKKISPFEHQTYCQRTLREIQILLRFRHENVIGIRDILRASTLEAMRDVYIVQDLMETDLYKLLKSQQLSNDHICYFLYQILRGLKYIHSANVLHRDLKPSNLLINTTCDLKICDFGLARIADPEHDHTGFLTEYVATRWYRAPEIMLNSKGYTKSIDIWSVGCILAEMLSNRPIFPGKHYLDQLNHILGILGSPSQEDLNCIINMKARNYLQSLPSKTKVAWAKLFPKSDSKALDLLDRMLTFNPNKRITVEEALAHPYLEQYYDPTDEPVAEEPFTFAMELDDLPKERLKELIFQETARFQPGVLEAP
Chain of Vasopressin V1a receptor (P37288 whole entry): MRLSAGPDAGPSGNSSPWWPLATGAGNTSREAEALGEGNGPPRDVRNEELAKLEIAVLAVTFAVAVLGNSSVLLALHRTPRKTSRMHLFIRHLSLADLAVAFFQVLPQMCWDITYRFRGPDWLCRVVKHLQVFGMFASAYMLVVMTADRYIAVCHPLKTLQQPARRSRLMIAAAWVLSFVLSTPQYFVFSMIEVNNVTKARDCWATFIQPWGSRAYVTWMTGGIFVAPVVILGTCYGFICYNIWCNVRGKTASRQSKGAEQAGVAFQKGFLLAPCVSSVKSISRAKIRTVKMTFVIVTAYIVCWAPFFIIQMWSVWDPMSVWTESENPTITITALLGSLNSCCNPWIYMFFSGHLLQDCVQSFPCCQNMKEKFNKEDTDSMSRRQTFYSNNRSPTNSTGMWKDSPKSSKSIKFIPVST
Chain of Insulin receptor (P15127 27-759 limits assumed): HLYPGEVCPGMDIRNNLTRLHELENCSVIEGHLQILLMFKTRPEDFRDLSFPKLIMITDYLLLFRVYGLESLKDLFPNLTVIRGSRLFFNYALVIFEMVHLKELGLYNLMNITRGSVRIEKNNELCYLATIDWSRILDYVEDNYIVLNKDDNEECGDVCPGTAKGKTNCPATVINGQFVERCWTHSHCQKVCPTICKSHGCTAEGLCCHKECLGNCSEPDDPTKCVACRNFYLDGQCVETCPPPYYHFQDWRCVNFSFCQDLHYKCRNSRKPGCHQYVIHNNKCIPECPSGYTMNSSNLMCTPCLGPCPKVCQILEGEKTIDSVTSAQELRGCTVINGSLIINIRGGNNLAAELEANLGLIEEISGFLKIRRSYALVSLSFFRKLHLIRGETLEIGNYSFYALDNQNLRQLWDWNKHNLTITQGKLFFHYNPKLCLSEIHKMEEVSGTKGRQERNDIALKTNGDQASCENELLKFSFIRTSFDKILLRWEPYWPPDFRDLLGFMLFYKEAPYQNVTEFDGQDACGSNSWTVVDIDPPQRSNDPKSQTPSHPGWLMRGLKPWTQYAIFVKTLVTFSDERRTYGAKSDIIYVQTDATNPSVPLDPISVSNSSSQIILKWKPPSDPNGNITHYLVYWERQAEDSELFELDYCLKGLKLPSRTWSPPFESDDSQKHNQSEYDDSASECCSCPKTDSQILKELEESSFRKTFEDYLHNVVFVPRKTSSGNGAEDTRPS
Chain of Insulin receptor (P15127 764-1383 limits assumed): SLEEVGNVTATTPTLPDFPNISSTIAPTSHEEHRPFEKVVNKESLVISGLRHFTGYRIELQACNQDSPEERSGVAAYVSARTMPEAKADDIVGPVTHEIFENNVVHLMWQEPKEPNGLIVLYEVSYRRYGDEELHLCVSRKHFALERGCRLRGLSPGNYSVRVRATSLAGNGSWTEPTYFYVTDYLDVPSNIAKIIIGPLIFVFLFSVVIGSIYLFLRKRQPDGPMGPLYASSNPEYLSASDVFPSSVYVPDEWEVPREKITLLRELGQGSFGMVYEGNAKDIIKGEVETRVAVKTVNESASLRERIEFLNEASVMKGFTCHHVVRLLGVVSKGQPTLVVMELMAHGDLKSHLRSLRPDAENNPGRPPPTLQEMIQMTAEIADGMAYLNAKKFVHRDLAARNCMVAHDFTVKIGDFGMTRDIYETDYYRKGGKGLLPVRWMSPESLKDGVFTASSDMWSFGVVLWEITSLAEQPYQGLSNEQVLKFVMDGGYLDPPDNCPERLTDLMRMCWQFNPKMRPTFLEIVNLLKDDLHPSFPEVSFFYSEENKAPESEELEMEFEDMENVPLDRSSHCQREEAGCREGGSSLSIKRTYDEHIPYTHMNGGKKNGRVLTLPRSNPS
Chain of Acetylcholinesterase (P22303 whole entry): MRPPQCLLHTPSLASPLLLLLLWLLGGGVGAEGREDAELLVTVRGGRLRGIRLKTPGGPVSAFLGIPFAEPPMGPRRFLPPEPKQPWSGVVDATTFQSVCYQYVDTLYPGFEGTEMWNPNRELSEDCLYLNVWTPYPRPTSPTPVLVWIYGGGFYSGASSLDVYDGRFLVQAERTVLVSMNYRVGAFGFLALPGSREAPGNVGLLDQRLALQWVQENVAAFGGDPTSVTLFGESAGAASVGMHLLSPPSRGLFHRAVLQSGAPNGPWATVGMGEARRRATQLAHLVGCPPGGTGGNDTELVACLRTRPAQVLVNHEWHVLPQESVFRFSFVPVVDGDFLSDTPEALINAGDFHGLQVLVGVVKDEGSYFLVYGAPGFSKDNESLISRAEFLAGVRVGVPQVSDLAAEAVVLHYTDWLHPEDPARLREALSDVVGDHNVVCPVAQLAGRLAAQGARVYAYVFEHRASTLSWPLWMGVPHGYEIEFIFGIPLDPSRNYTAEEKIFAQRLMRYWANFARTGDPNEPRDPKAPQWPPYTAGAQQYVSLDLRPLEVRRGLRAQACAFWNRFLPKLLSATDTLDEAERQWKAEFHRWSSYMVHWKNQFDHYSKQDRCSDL

Turning to `NNC(=O)c1ccncc1` [ISONIAZID], the IC50 result (against Acetylcholinesterase; in [1]; in [2]; in test [3]; against Insulin receptor; on Vasopressin V1a receptor) was “Not Active” throughout. Further, the IC50 result (in test [4]; at Adenosine receptor A3; in test [5]) was “Not Active” throughout.

Consider `CC1=C(/C=C/C(C)=C/C=C/C(C)=C\C(=O)O)C(C)(C)CCC1` [ISOTRETINOIN], for which the IC50 entry (at Acetylcholinesterase; in [1]; in test [2]; in [3]; on Insulin receptor; at Vasopressin V1a receptor) was “Not Active” throughout. The IC50 result in test [4] and in test [5] was “Not Active” each time. Besides, the pIC50 (in general, −log10 of the IC50, conventionally taken in molar units) at Adenosine receptor A3 (read-out: IC50) is 5.38. Further, the negative logarithm of the Ki (pKi) (usually −log10 of the Ki, conventionally taken in molar units) on Adenosine receptor A3 (read-out: Ki) is 5.63.

In the case of `CO[C@@H]1[C@@H](O[C@@H]2O[C@H](C)[C@@H](O[C@H]3C[C@@](C)(O)[C@@H](OC(=O)CC(C)C)[C@H](C)O3)[C@H](N(C)C)[C@H]2O)[C@@H](CC=O)C[C@@H](C)[C@@H](O)/C=C/C=C/C[C@@H](C)OC(=O)C[C@H]1O` [KITASAMYCIN], the IC50 result (at Acetylcholinesterase; in test [1]; in test [2]; against Insulin receptor; against Vasopressin V1a receptor; in test [4]) was “Not Active” each time. The IC50 entry (at Adenosine receptor A3; in test [5]) was “Not Active” in each case. For the same compound, the negative-log IC50 (pIC50) in test [3] was 5.81. Besides, the negative logarithm of the Ki (pKi) in test [3] is 6.20.

In the case of `CC(CCc1ccccc1)NCC(O)c1ccc(O)c(C(N)=O)c1` (configuration not stated) [LABETALOL], the IC50 result (against Acetylcholinesterase; in test [1]; in test [2]; at Insulin receptor; on Vasopressin V1a receptor; at Adenosine receptor A3) was “Not Active” in each case. The IC50 result in test [5] was “Not Active”. Further, the pIC50 in test [3] was 7.24; in [4] (read-out: IC50), 6.41. The negative-log Ki (pKi) is 7.64 in test [3] and 6.65 in test [4] (read-out: Ki).

In the case of `Nc1nnc(-c2cccc(Cl)c2Cl)c(N)n1` [LAMOTRIGINE], the IC50 result (against Acetylcholinesterase; in test [1]; in test [2]; in test [3]; against Insulin receptor; against Vasopressin V1a receptor) was “Not Active” in each case. The IC50 entry (in test [4]; against Adenosine receptor A3; in test [5]) was “Not Active” throughout.

Take `CCC[C@@H]1C[C@@H](C(=O)N[C@@H]([C@H]2O[C@H](SC)[C@H](O)[C@@H](O)[C@H]2O)[C@@H](C)O)N(C)C1` [LINCOMYCIN]: the IC50 result (against Acetylcholinesterase; in test [1]; in test [2]; in test [3]; against Insulin receptor; on Vasopressin V1a receptor) was “Not Active” each time. Further, the IC50 result (in [4]; against Adenosine receptor A3; in test [5]) was “Not Active” in each case.

Turning to `NCCCC[C@H](N[C@@H](CCc1ccccc1)C(=O)O)C(=O)N1CCC[C@H]1C(=O)O` [LISINOPRIL ANHYDROUS], the IC50 result (at Acetylcholinesterase; in test [1]; in [2]; in test [3]; against Insulin receptor; on Vasopressin V1a receptor) was “Not Active” each time. In addition, the IC50 entry (in test [4]; at Adenosine receptor A3; in test [5]) was “Not Active” throughout.
